# Where two headings read alike, the source gives them in different places.
# Assays:
# Type in all cases: cell-based
# [1] = system: anaplastic large cell lymphoma cells (DELBVR); assay: In vitro potency (CellTiter-Glo, 96 h) on DELBVR; conditions: 96 h, read-out: DELBVR IC50
# Method: (§1) In vitro potency was assessed on multiple cancer cell lines. All cell lines were authenticated by STR profiling at IDEXX Bioresearch and cultured for no more than 2 months after resuscitation. Cells cultured in log-phase growth were seeded for 24 hours in 96-well plates containing […] RPMI 1640 supplemented with 20% FBS. Serial dilutions of antibody-drug conjugates in cell culture media were prepared at 4x working concentrations, and 50 μL of each dilution was added to the 96-well plates. Following addition of test articles, cells were incubated with test articles for 4 days at […]. After 96 hours, growth inhibition was assessed by CellTiterGlo® (Promega, Madison, WI) and luminescence was measured on a plate reader.
# (§2) Cell viability was determined by CellTiter-Glo staining after 96h exposure to ADC. ND=Not Determined. In the following tables, “Ex_” refers to a drug linker number. For example, “Ag4-Ex_4a” refers to a conjugate of an Ag4 antibody with drug linker 4a.
# [2] = system: anaplastic large cell lymphoma cells (DEL); assay: In vitro potency (CellTiter-Glo, 96 h) on DEL; conditions: 96 h, read-out: DEL IC50
# Method: as §1, §2
# [3] = system: anaplastic large cell lymphoma cells (Karpas299); assay: In vitro potency (CellTiter-Glo, 96 h) on Karpas299; conditions: Homo sapiens, KARPAS-299, 96 h, read-out: Karpas299 IC50
# Method: as §1, §2
# [4] = In vitro potency (CellTiter-Glo, 96 h) on Ls174T; conditions: Homo sapiens, LS174T, read-out: Ls174T IC50
# Method: as §1, §2
# melanoma cells (A2058) = assay: In vitro potency (CellTiter-Glo, 96 h) on A2058; conditions: Homo sapiens, A2058, 96 h, CPT free drugs; CellTiter-Glo after 96 h exposure; read-out: A2058 IC50
# Method: as §1, §2
# [5] = system: B-lymphocyte cancer cells (SU-DHL4); assay: In vitro potency (CellTiter-Glo, 96 h) on SU-DHL4; conditions: Homo sapiens, SU-DHL-4, 96 h, read-out: SU-DHL-4 IC50
# Method: as §1, §2
# [6] = system: breast cancer cells (MDA-MB-231); assay: In vitro potency (CellTiter-Glo, 96 h) on MDA-MB-231; conditions: Homo sapiens, MDA-MB-231, 96 h, read-out: MDAMB 231 IC50
# Method: as §1, §2
# [7] = system: acute myeloid leukemia cells (MOLM-13); assay: In vitro potency (CellTiter-Glo, 96 h) on MOLM-13; conditions: Homo sapiens, MOLM-13, 96 h, read-out: MOLM-13 IC50
# Method: as §1, §2
# [8] = system: pancreatic cancer cells (BxPC3); assay: In vitro potency (CellTiter-Glo, 96 h) on BxPC3; conditions: Homo sapiens, BXPC-3, 96 h, read-out: BxPC3 IC50
# Method: as §1, §2
# [9] = system: Hodgkin's lymphoma cells (L540cy); assay: In vitro potency (CellTiter-Glo, 96 h) on L540cy; conditions: L540cy, 96 h, read-out: L540cy IC50
# Method: as §1, §2
# [10] = system: renal carcinoma cells (786-O); assay: In vitro potency (CellTiter-Glo, 96 h) on 786-O; conditions: Homo sapiens, 786-0, 96 h, read-out: 786-O IC50
# Method: as §1, §2
# [11] = system: non-small-cell lung cancer cells (Calu1); assay: In vitro potency (CellTiter-Glo, 96 h) on Calu1; conditions: Homo sapiens, Calu-1, 96 h, read-out: Calu1 IC50
# Method: as §1, §2
# [12] = CPT free drugs, CellTiter-Glo after 96 h exposure
Compound,"IC50 [1, 12] [nM]","IC50 [2, 12] [nM]","IC50 [3, 12] [nM]","IC50 [4, 12] [nM]","IC50 [5, 12] [nM]","IC50 [6, 12] [nM]","IC50 [7, 12] [nM]","IC50 [8, 12] [nM]","IC50 [9, 12] [nM]","IC50 [10, 12] [nM]",IC50 [1] [nM],IC50 [2] [nM],IC50 [3] [nM],IC50 ([4]; 96 h) [nM],IC50 [5] [nM],IC50 [6] [nM],IC50 [7] [nM],IC50 [8] [nM],IC50 [9] [nM],IC50 [10] [nM],other results
CC[C@@]1(O)C(=O)OCc2c1cc1n(c2=O)Cc2c-1nc1cc(F)c(SC)cc1c2CN [Compound 2at],8,11,38,30,23,21,264,84,4,50,,,,,,,,,,,IC50 (melanoma cells (A2058)): 20 nM
CC[C@@]1(O)C(=O)OCc2c1cc1n(c2=O)Cc2c-1nc1cc3c(cc1c2CNC[C@@H](O)CN1CCCCC1)OCO3 [Compound 7z],,,,,,,,,,,16,17,150,79,39,306,143,127,48,123,
CC[C@@]1(O)C(=O)OCc2c1cc1n(c2=O)Cc2c-1nc1cc(F)c(F)c(F)c1c2CN [Compound 2ap],1,1,5,4,2,13,5,14,2,8,,,,,,,,,,,
C/C=C/c1c(C)c(F)cc2nc3c(c(CN)c12)Cn1c-3cc2c(c1=O)COC(=O)[C@]2(O)CC [Compound 2aj],0.3,0.3,2,5,1,5,1,3,1,2,,,,,,,,,,,
CC[C@@]1(O)C(=O)OCc2c1cc1n(c2=O)Cc2c-1nc1cc(F)c(OC)c(Br)c1c2CN [Compound 2ad],1,1,7,17,4,15,5,22,4,9,,,,,,,,,,,
CC[C@@]1(O)C(=O)OCc2c1cc1n(c2=O)Cc2c-1nc1cc3c(cc1c2CNC(C)=O)CCO3 [Compound 12],,,,,,,,,,,1,1,24,19,1,27,5,12,5,13,
CC[C@@]1(O)C(=O)OCc2c1cc1n(c2=O)Cc2c-1nc1cc3c(cc1c2CNC1CCNCC1)OCO3 [Compound 8e],,,,,,,,,,,10,7,72,109,25,102,89,62,36,104,
CC[C@@]1(O)C(=O)OCc2c1cc1n(c2=O)Cc2c-1nc1cc(F)c(C)c(-c3ccc(CO)s3)c1c2CN [Compound 6e],,,,,,,,,,,,,,,,,,,,,IC50 [11]: 155 nM
CC[C@@]1(O)C(=O)OCc2c1cc1n(c2=O)Cc2c-1nc1cc3c(cc1c2CNC[C@H](O)CN1CCCCC1)OCO3 [Compound 7aa],,,,,,,,,,,19,17,63,188,19,228,69,66,51,131,
CC[C@@]1(O)C(=O)OCc2c1cc1n(c2=O)Cc2c-1nc1cc(F)c(C)c(/C=C/c3ccc(OC)cc3)c1c2CN [Compound 2ai],5,6,47,64,13,79,34,57,47,64,,,,,,,,,,,
CC[C@@]1(O)C(=O)OCc2c1cc1n(c2=O)Cc2c-1nc1cc3c(cc1c2CN1CCN(CCN)CC1)OCO3 [Compound 8c],,,,,,,,,,,4,3,28,32,7,57,69,14,14,27,
CC[C@@]1(O)C(=O)OCc2c1cc1n(c2=O)Cc2c-1nc1cc3c(cc1c2CNCC(O)CN1CCOCC1)OCO3 (some centres unmarked) [Compound 7i],,,,,,,,,,,17,9,84,110,32,183,183,57,48,118,
"C=Cc1c(C)c(F)cc2nc3c(c(CN)c12)Cn1c-3cc2c(c1=O)COC(=O)[C@]2(O)CC [Compound 2am, (S)-11-(aminomethyl)-4-ethyl-8-fluoro-4-hydroxy-9-methyl-10-vinyl-1,12-dihydro-14H-pyrano[3′,4′:6,7]indolizino[1,2-b]quinoline-3,14(4H)-dione]",,,,,,,,,,,0.3,0.3,2,5,1,5,2,4,1,2,
CC[C@@]1(O)C(=O)OCc2c1cc1n(c2=O)Cc2c-1nc1cc3c(cc1c2CNCCN1CCNCC1)OCO3 [Compound 8b],,,,,,,,,,,13,8,62,111,17,260,91,51,56,102,
CC[C@@]1(O)C(=O)OCc2c1cc1n(c2=O)Cc2c-1nc1cc(F)c(C)c3c1c2[C@@H](NC(=O)CN)CC3 [Compound 13b],4,1,11,58,2,30,23,21,6,27,,,,,,,,,,,
CC[C@@]1(O)C(=O)OCc2c1cc1n(c2=O)Cc2c-1nc1cc3c(cc1c2CN1CCC(N)CC1)OCO3 [Compound 8f],,,,,,,,,,,30,14,110,236,32,207,32,166,84,267,
CC[C@@]1(O)C(=O)OCc2c1cc1n(c2=O)Cc2c-1nc1cc3c(cc1c2CNCCCNC)OCO3 [Compound 8a],,,,,,,,,,,2,1,8,48,4,22,3,15,5,11,
CC[C@@]1(O)C(=O)OCc2c1cc1n(c2=O)Cc2c-1nc1cc3c(cc1c2CNC(=O)CN)CCO3 [Compound 13],,,,,,,,,,,21,8,126,195,18,177,88,94,45,139,
C=C(C)c1c(C)c(F)cc2nc3c(c(CN)c12)Cn1c-3cc2c(c1=O)COC(=O)[C@]2(O)CC [Compound 2al],,,,,,,,,,,1,1,4,11,1,9,2,7,2,4,
